{"source": "paper PMC6154393", "about": "(Bioorganic & medicinal chemistry, 2018)", "key": {"in vitro [1]": {"assay": "in vitro", "details": "monkey"}, "Mtb Erdman strain": {"test_system": "Mtb Erdman strain", "assay": "BALB/c acute infection model, oral administration", "type": "in vivo, Mycobacterium tuberculosis"}, "in vitro [2]": {"assay": "in vitro", "details": "human, Caco-2"}, "[3]": {"test_system": "non-replicating Mtb (H37Rv)", "assay": "microbe, parasite or virus in culture", "type": "cell-based", "details": "Mycobacterium tuberculosis, 240 h, read-out: MIC (LORA)"}, "[4]": {"test_system": "intracellular Mtb CDC1551-tdTomato in macrophages (J774A.1 cells)", "assay": "Killing effect against intracellular Mtb in J774A.1 macrophages", "type": "cell-based, Mycobacterium tuberculosis", "details": "at 2xMIC; for Killing of intracellular Mtb (in words): J774A.1 macrophages"}, "[5]": {"details": "mouse, in vivo, iv, 10 mg/kg"}, "in vivo": {"assay": "in vivo", "details": "BALB/c, mouse, po, 30 mg/kg"}, "Mycobacterium smegmatis": {"test_system": "Mycobacterium smegmatis", "details": "cited from earlier work"}}, "data": [{"smiles": "CC[C@@H](CO)NCCN[C@@H](CC)CO", "note": "[Ethambutol (EMB), Ethambutol]", "values": [{"measurement": "IC50 at 72 h", "setting": "in vitro [1]", "result": "> 200", "unit": "µg/mL"}]}, {"smiles": "NNC(=O)c1ccncc1", "note": "[Isoniazid (INH), Isoniazid, reference compound]", "values": [{"measurement": "Log reduction", "setting": "Mtb Erdman strain; 2.5 mg/kg, 3 weeks, lung burden relative to untreated control", "result": "about 4 Log10"}, {"measurement": "IC50 at 72 h", "setting": "in vitro [1]", "result": "> 200", "unit": "µg/mL"}]}, {"smiles": "CC(=O)NC[C@H]1CN(c2ccc(N3CCOCC3)c(F)c2)C(=O)O1", "note": "[Linezolid]", "values": [{"measurement": "IC50 at 72 h", "setting": "in vitro [1]", "result": "> 200", "unit": "µg/mL"}]}, {"smiles": "CNC(=C[N+](=O)[O-])NCCSCc1ccc(CN(C)C)o1", "note": "[Ranitidine]", "values": [{"measurement": "Papp A→B at 2 h, 10 µM", "setting": "in vitro [2]", "result": 0.237, "unit": "×10⁻⁶ cm/s"}, {"measurement": "efflux ratio at 2 h, 10 µM", "setting": "in vitro [2]", "result": 5}]}, {"smiles": "CO[C@H]1/C=C/O[C@@]2(C)Oc3c(C)c(O)c4c(O)c(c(/C=N/N5CCN(C)CC5)c(O)c4c3C2=O)NC(=O)/C(C)=C\\C=C\\[C@H](C)[C@H](O)[C@@H](C)[C@@H](O)[C@@H](C)[C@H](OC(C)=O)[C@@H]1C", "note": "[Rifampicin (RIF), Rifampicin]", "values": [{"measurement": "IC50 at 72 h", "setting": "in vitro [1]", "result": "> 200", "unit": "µg/mL"}]}, {"smiles": "CC[C@]1(C)C[C@@H](OC(=O)CSC(C)(C)CNC(=O)[C@H](N)CC(C)C)[C@]2(C)[C@H](C)CC[C@]3(CC[C@@H](O)[C@H]32)[C@@H](C)[C@@H]1O", "note": "[UT-800 (1)]", "values": [{"measurement": "MIC", "setting": "[3]", "result": "1.04 to 3.46", "unit": "µg/mL"}, {"measurement": "Time to kill Mtb in infected macrophages", "setting": "[4]; J774A.1 cells, Mtb CDC1551-tdTomato", "result": "≤ 72", "unit": "h"}, {"measurement": "Killing of intracellular Mtb (in words)", "setting": "[4]", "result": "kills intracellular Mtb faster than rifampicin"}, {"measurement": "Killing of intracellular Mtb (in words)", "setting": "[4]; listed as 1", "result": "killed intracellular Mtb more effectively than INH and RIF"}, {"measurement": "Log10 cfu/mouse", "setting": "Mtb Erdman strain; 100 mg/kg, oral, 3 weeks, lungs, BALB/c mice, mean of 5", "result": "8.1E+05"}, {"measurement": "Viable organisms persisted", "setting": "Mtb Erdman strain; 200 mg/kg, 3 weeks", "result": "5.6-5.7 log10 cfu/mouse"}, {"measurement": "Log10 cfu/mouse", "setting": "Mtb Erdman strain; 200 mg/kg, oral, 3 weeks, lungs, BALB/c mice, mean of 5", "result": "4.4E+05"}, {"measurement": "Log10 cfu/mouse", "setting": "Mtb Erdman strain; in vivo", "result": "1.2E+06"}, {"measurement": "AUC0-24h", "setting": "[5]", "result": "66,281 ng•h/g"}, {"measurement": "Tmax", "setting": "in vivo", "result": "≤ 1", "unit": "h"}]}, {"smiles": "C=C[C@]1(C)C[C@@H](OC(=O)CSC(C)(C)CNC(=O)[C@H](N)CC(C)C)[C@]2(C)[C@H](C)CC[C@]3(CCC(=O)[C@H]32)[C@@H](C)[C@@H]1O", "note": "[UT-810 (2)]", "values": [{"measurement": "MIC", "setting": "[3]", "result": "1.04 to 3.46", "unit": "µg/mL"}]}, {"smiles": "CC[C@]1(C)C[C@@H](OC(=O)CSC(C)(C)CNC(=O)[C@H](N)CC(C)C)[C@]2(C)[C@H](C)CC[C@]3(CCC(=O)[C@H]32)[C@@H](C)[C@@H]1O", "note": "[UT-815 (3)]", "values": [{"measurement": "MIC", "setting": "[3]", "result": "1.04 to 3.46", "unit": "µg/mL"}]}, {"smiles": "C=C[C@]1(C)C[C@@H](OC(=O)CSC(C)(C)CNC(=O)[C@H](N)CC(C)C)[C@]2(C)[C@H](C)CC[C@]3(CC[C@@H](O)[C@H]32)[C@@H](C)[C@@H]1O", "note": "[UT-820 (4)]", "values": [{"measurement": "MIC", "setting": "[3]", "result": "1.04 to 3.46", "unit": "µg/mL"}]}, {"smiles": "C=C[C@]1(C)C[C@@H](OC(=O)CSC(C)(C)CNC(=O)[C@H](N)C(C)C)[C@]2(C)[C@H](C)CC[C@]3(CCC(=O)[C@H]32)[C@@H](C)[C@@H]1O", "note": "[Valnemulin]", "values": [{"measurement": "MIC", "setting": "Mycobacterium smegmatis", "result": "8 to 16", "unit": "µg/mL"}, {"measurement": "IC50 at 72 h", "setting": "in vitro [1]", "result": 15, "unit": "µg/mL"}]}]}
